Values quoted from earlier work in US20250325518A1, “USE OF A COMBINATION OF SACUBITRIL AND VALSARTAN” (Novartis AG, priority 2016, published 2025).

Tests used:
[1] = test system: patients 8 months to 14 years with HF due to congenital heart disease or cardiomyopathy; settings: pediatric HF patients 8 months to 14 years; placebo-controlled
[2] = test system: adult patients with HF with reduced ejection fraction (HFrEF); settings: LCZ696 vs enalapril

Compound	composite measure of HF outcomes (worsening, improved or unchanged), primary endpoint [1]	relative risk reduction (RRR), time to first occurrence of composite endpoint of CV death or HF hospitalization ([2]; N=8442, p=0.0000002)	relative risk reduction (RRR), time to CV death ([2]; p=0.00004)	relative risk reduction (RRR), time to first HF hospitalization ([2]; p=0.00004)
COc1ccccc1OCCNCC(O)COc1cccc2[nH]c3ccccc3c12 (stereo not shown) [carvedilol]	did not meet its composite primary endpoint	–	–	–
trisodium [3-((1S,3R)-1-biphenyl-4-ylmethyl-3-ethoxycarbonyl-1-butylcarbamoyl)propionate-(S)-3′-methyl-2′-(pentanoyl{2″-(tetrazol-5-ylate)biphenyl-4′-ylmethyl}amino)butyrate] hemipentahydrate [LCZ696]	–	20%	20%	21%
